What all share (format): in vivo
In test [1] the test system is Lolium perenne (LOLPE). Nature of the test: Glasshouse assay for herbicidal activity, pre-/post-emergence (percentage phytotoxicity). The note with it: Lolium perenne, Rate 250 g/ha, 100%=total damage, 0%=no damage. Put shortly: (§1)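 Pre- and post-emergence treatments were applied to potted plants at 1 and ~12 days after sowing respectively. Percentage phytotoxicity was judged visually 20 or 15 days later.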

Test [2] relates to Avena fatua (AVEFA). Described as above. The note with it: Avena fatua, Rate 250 g/ha, 100%=total damage, 0%=no damage. Put shortly:
as §1

Test [3] deals with Echinochloa crus-galli (ECHCG). The description is as above. The note with it: Echinochloa crus-galli, Rate 250 g/ha, 100%=total damage, 0%=no damage. Put shortly:
as §1

In test [4] the test system is Alopecurus myosuroides (ALOMY). The description is as above. Conditions: Alopecurus myosuroides, Rate 250 g/ha, 100%=total damage, 0%=no damage. The method in brief:
as §1

The subject of test [5] is wheat. Nature of the test: Post-emergence herbicidal activity against cereal crops (wheat) +/- safener, crop selectivity. The note with it: 100%=total damage to plant, 0%=no damage; for Post-emergence herbicidal activity against wheat (percentage phytotoxicity), +CQC: 250 g/ha, plus safener cloquintocet-mexyl (CQC) applied at 50 g/ha; for percent phytotoxicity (crop damage) to wheat at 250 g/ha: Triticum aestivum, 360 h, without safener, read-out: Post-emergence herbicidal activity against wheat (percentage phytotoxicity), Wheat - CQC. Put shortly:
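Test plants raised in pots in a glasshouse (24/18 °C warm or 20/16 °C cool species day/night, 16 h light, 65% humidity) and treated post-emergence about 12 days after sowing. Visual percentage phytotoxicity scored 15 days after application (0% = no damage, 100% = total damage).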

Setting [6] is: post-emergence, 360 h, post-emergence, visual assessment 15 DAA, read-out: Post-emergence herbicidal activity (percentage phytotoxicity), LOLPE POST.
The mark [7] stands for this setting: pre-emergence, 480 h, pre-emergence, visual assessment 20 DAA, read-out: Pre-emergence herbicidal activity (percentage phytotoxicity), LOLPE PRE.
Setting [8] is: post-emergence, 360 h, post-emergence, visual assessment 15 DAA, read-out: Post-emergence herbicidal activity (percentage phytotoxicity), AVEFA POST.
Setting [9] is: pre-emergence, 480 h, pre-emergence, visual assessment 20 DAA, read-out: Pre-emergence herbicidal activity (percentage phytotoxicity), AVEFA PRE.
Where [10] appears, read: post-emergence, 360 h, post-emergence, visual assessment 15 DAA, read-out: Post-emergence herbicidal activity (percentage phytotoxicity), ECHCG POST.
Setting [11] is: pre-emergence, 480 h, pre-emergence, visual assessment 20 DAA, read-out: Pre-emergence herbicidal activity (percentage phytotoxicity), ECHCG PRE.
Where [12] appears, read: 360 h, post-emergence, visual assessment 15 DAA, read-out: Post-emergence herbicidal activity (percentage phytotoxicity), ALOMY POST.
The mark [13] stands for this setting: 480 h, pre-emergence, visual assessment 20 DAA, read-out: Pre-emergence herbicidal activity (percentage phytotoxicity), ALOMY PRE.

Results on 11 compounds are retold here after patent US10301295B2, “Herbicidal compounds” (Syngenta Participations AG, priority 2014, dated 2019).

Where two headings read alike, the source gives them in different places.

Take `Cc1cc(C)c(C2C(=O)CC(CCNC(=O)NC(=O)c3ccc(Cl)cc3F)C2=O)c(C)c1` (centres unmarked) [Compound A59]: the pest or weed control at 250 g/ha was 100% in test [1] (setting [6]); 80% in test [1] (setting [7]); 90% in test [2] (setting [8]); 30% in test [2] (setting [9]); 90% in test [3] (setting [10]); 100% in test [3] (setting [11]). For the same compound, the pest or weed control at 250 g/ha in test [4] (setting [12]) was 90%; in test [4] (setting [13]), 70%. The “Post-emergence herbicidal activity against wheat (percentage phytotoxicity), +CQC” value in test [5] amounted to 80%. Besides, the percent phytotoxicity (crop damage) to wheat at 250 g/ha in test [5] amounted to 90%.
Take `Cc1cc(-n2cc(Cl)cn2)cc(C)c1C1C(=O)CC(CCNC(=O)N(C)c2ccccn2)C1=O` (centres unmarked) [Compound A20]: the pest or weed control at 250 g/ha was determined as 90% in test [1] (setting [6]); 80% in test [1] (setting [7]); 100% in test [2] (setting [8]); 80% in test [2] (setting [9]); 100% in test [3] (setting [10]); 100% in test [3] (setting [11]). Moreover, the pest or weed control at 250 g/ha in test [4] (setting [12]) turned out to be 80%; in test [4] (setting [13]), 20%. Moreover, in test [5], the “Post-emergence herbicidal activity against wheat (percentage phytotoxicity), +CQC” value was found to be 0%. Besides, the percent phytotoxicity (crop damage) to wheat at 250 g/ha in test [5] was found to be 80%.
For `Cc1cc(C)c(C2C(=O)CC(CCNC(=O)NC(=O)c3ccccc3Cl)C2=O)c(C)c1` (centres unmarked) [Compound A49], the pest or weed control at 250 g/ha was 100% in test [1] (setting [6]); 90% in test [1] (setting [7]); 100% in test [2] (setting [8]); 80% in test [2] (setting [9]); 100% in test [3] (setting [10]); 100% in test [3] (setting [11]). Besides, the pest or weed control at 250 g/ha in test [4] (setting [12]) came out at 100%; in test [4] (setting [13]), 90%. Further, the “Post-emergence herbicidal activity against wheat (percentage phytotoxicity), +CQC” value in test [5] turned out to be 90%. Moreover, in test [5], the percent phytotoxicity (crop damage) to wheat at 250 g/ha came out at 90%.
Take `Cc1cc(C)c(C2C(=O)CC(CCNC(=O)NCc3ccccc3)C2=O)c(C)c1` (centres unmarked) [Compound A7]: the pest or weed control at 250 g/ha in test [1] (setting [6]) is 70%; in test [1] (setting [7]), 0%; in test [2] (setting [8]), 90%; in test [2] (setting [9]), 0%; in test [3] (setting [10]) it was 90%; in test [3] (setting [11]), 0%. In addition, the pest or weed control at 250 g/ha in test [4] (setting [12]) was determined as 10%; in test [4] (setting [13]) it was 0%. In test [5], the “Post-emergence herbicidal activity against wheat (percentage phytotoxicity), +CQC” value was 0%. Besides, the percent phytotoxicity (crop damage) to wheat at 250 g/ha in test [5] amounted to 20%.
Regarding `Cc1cc(C)c(C2C(=O)CC(CCNC(N)=O)C2=O)c(C)c1` (centres unmarked) [Compound A6], the pest or weed control at 250 g/ha was 90% in test [1] (setting [6]); 80% in test [1] (setting [7]); 90% in test [2] (setting [8]); 0% in test [2] (setting [9]); 100% in test [3] (setting [10]); 90% in test [3] (setting [11]). In addition, the pest or weed control at 250 g/ha is 70% in test [4] (setting [12]) and 30% in test [4] (setting [13]). Besides, the “Post-emergence herbicidal activity against wheat (percentage phytotoxicity), +CQC” value in test [5] amounted to 10%. Besides, the percent phytotoxicity (crop damage) to wheat at 250 g/ha in test [5] is 10%.
With `Cc1cc(C)c(C2C(=O)CC(CCNC(=O)Nc3ncccn3)C2=O)c(C)c1` (centres unmarked) [Compound A30], the pest or weed control at 250 g/ha in test [1] (setting [6]) was 80%; in test [1] (setting [7]), 90%; in test [2] (setting [8]), 80%; in test [2] (setting [9]) it was 80%; in test [3] (setting [10]), 90%; in test [3] (setting [11]), 60%. Besides, the pest or weed control at 250 g/ha in test [4] (setting [12]) is 90%; in test [4] (setting [13]) it was 80%. Besides, in test [5], the “Post-emergence herbicidal activity against wheat (percentage phytotoxicity), +CQC” value worked out at 40%. In test [5], the percent phytotoxicity (crop damage) to wheat at 250 g/ha was found to be 70%.
Turning to `Cc1cc(C)c(C2C(=O)CC(CCNS(=O)(=O)c3ccc(F)c(Cl)c3)C2=O)c(C)c1` (centres unmarked) [Compound A75], the pest or weed control at 250 g/ha was determined as 70% in test [1] (setting [6]); 80% in test [1] (setting [7]); 80% in test [2] (setting [8]); 60% in test [2] (setting [9]); 30% in test [3] (setting [10]); 70% in test [3] (setting [11]). Further, the values for the pest or weed control at 250 g/ha in test [4] (setting [12]) and in test [4] (setting [13]) were 60% and 70%, respectively. The “Post-emergence herbicidal activity against wheat (percentage phytotoxicity), +CQC” value in test [5] is recorded as 0%. In addition, the percent phytotoxicity (crop damage) to wheat at 250 g/ha in test [5] was found to be 0%.
For the compound `Cc1cc(C)c(C2C(=O)CC(CCNS(=O)(=O)c3ccccc3C(F)(F)F)C2=O)c(C)c1` (centres unmarked) [Compound A86], the pest or weed control at 250 g/ha was 30% in test [1] (setting [6]); 60% in test [1] (setting [7]); 0% in test [2] (setting [8]); 20% in test [2] (setting [9]); 30% in test [3] (setting [10]); 60% in test [3] (setting [11]). Also, the pest or weed control at 250 g/ha in test [4] (setting [12]) amounted to 50%; in test [4] (setting [13]), 20%. Moreover, in test [5], the “Post-emergence herbicidal activity against wheat (percentage phytotoxicity), +CQC” value is 0%. In addition, in test [5], the percent phytotoxicity (crop damage) to wheat at 250 g/ha amounted to 20%.
Consider `CCS(=O)(=O)NCCC1CC(=O)C(c2c(C)cc(C)cc2C)C1=O` (centres unmarked) [Compound A83], for which the pest or weed control at 250 g/ha was determined as 70% in test [1] (setting [6]); 90% in test [1] (setting [7]); 80% in test [2] (setting [8]); 80% in test [2] (setting [9]); 70% in test [3] (setting [10]); 70% in test [3] (setting [11]). Also, the pest or weed control at 250 g/ha in test [4] (setting [12]) was found to be 80%; in test [4] (setting [13]), 90%. Besides, in test [5], the “Post-emergence herbicidal activity against wheat (percentage phytotoxicity), +CQC” value is on record as 10%. Further, the percent phytotoxicity (crop damage) to wheat at 250 g/ha in test [5] turned out to be 80%.
Regarding `Cc1cc(C)c(C2C(=O)CC(CCNC(=O)N(C)C)C2=O)c(C)c1` (centres unmarked) [Compound A31], the pest or weed control at 250 g/ha came to 90% in test [1] (setting [6]); 100% in test [1] (setting [7]); 90% in test [2] (setting [8]); 70% in test [2] (setting [9]); 70% in test [3] (setting [10]); 90% in test [3] (setting [11]). The pest or weed control at 250 g/ha amounted to 90% in test [4] (setting [12]) and 80% in test [4] (setting [13]). The “Post-emergence herbicidal activity against wheat (percentage phytotoxicity), +CQC” value in test [5] is 10%. The percent phytotoxicity (crop damage) to wheat at 250 g/ha in test [5] was determined as 70%.
As for `Cc1cc(C)c(C2C(=O)CC(CCNC(=O)NC(=O)c3ccc(C(F)(F)F)cc3)C2=O)c(C)c1` (centres unmarked) [Compound A72], the pest or weed control at 250 g/ha is 80% in test [1] (setting [6]); 10% in test [1] (setting [7]); 90% in test [2] (setting [8]); 20% in test [2] (setting [9]); 80% in test [3] (setting [10]); 0% in test [3] (setting [11]). For the same compound, the pest or weed control at 250 g/ha in test [4] (setting [12]) amounted to 30%; in test [4] (setting [13]), 20%. Besides, the “Post-emergence herbicidal activity against wheat (percentage phytotoxicity), +CQC” value in test [5] is recorded as 70%. Moreover, in test [5], the percent phytotoxicity (crop damage) to wheat at 250 g/ha turned out to be 80%.
